How the values were obtained:
B0AT1 (SLC6A19) = target: T1, B0AT1 (SLC6A19) (Homo sapiens, UniProt Q695T7); experiment: Leucine uptake in CHO cells stably expressing human B0AT1 and collectrin; type: cell-based; conditions: 150 µM leucine, hit compounds at 30 µM, n = 3
T1 construct: expressed in transfected cells
T1 sequence (Q695T7 1-634): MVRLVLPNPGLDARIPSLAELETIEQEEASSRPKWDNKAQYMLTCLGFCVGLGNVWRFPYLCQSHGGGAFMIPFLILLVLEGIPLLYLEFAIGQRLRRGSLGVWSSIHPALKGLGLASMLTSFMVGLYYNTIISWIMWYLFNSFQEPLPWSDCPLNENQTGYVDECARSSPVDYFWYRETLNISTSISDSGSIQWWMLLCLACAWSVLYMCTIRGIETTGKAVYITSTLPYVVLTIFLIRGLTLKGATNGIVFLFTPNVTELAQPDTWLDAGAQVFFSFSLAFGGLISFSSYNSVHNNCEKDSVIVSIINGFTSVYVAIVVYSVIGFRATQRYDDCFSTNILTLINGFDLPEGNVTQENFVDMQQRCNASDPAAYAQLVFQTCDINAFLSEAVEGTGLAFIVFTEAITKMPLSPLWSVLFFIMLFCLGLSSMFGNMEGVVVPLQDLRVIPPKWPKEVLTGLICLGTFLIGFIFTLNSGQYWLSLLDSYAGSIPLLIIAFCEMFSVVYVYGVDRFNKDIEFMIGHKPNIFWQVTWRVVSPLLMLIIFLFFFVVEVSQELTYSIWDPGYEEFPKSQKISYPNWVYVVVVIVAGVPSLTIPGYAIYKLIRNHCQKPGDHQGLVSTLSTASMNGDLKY
T1 sequence (Q9HBJ8 15-222 partner): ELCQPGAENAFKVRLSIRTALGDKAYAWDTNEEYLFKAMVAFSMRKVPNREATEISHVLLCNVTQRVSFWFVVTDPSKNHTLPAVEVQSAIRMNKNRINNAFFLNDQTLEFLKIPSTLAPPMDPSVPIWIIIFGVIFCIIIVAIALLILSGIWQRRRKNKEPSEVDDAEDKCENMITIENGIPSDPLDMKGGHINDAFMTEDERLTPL

SNAT1 and SNAT2 = target: T2, SNAT1 and SNAT2 (Homo sapiens, UniProt Q96QD8); experiment: FMP assay in HCC1806 clones C10 (ASCT2ko) and D126 (ASCT2ko, SNAT2ko); type: cell-based; conditions: 10 mM; HCC1806 wildtype and C10 cells
T2 construct: endogenous in cells; host or cells: HCC1806 clone C10 (ASCT2ko) and clone D126 (ASCT2ko, SNAT2ko), amino acid depleted for 24 h
T2 sequence (Q96QD8 1-506): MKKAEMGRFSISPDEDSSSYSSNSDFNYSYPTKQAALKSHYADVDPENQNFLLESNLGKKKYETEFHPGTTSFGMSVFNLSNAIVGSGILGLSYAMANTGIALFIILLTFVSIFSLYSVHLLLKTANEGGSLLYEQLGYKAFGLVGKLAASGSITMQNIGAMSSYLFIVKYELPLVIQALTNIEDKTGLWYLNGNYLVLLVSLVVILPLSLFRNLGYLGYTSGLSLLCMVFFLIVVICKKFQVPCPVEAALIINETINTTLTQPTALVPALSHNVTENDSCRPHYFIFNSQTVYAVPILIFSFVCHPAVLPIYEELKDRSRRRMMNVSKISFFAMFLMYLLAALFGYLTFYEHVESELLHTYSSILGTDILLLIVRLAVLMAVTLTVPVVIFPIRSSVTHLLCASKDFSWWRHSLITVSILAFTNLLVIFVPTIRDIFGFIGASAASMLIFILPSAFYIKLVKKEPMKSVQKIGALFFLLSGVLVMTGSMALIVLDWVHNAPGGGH
Method: To delete the SNAT2 (SLC38A2) gene in modified HCC1806 cells (clone C10 nullizygous for ASCT2 ([Broer et al., 2019])), the GeneArt CRISPR Nuclease Vector with OFP Reporter Kit (Invitrogen; A21174) was employed and complementary 19–20 bp long single-stranded oligonucleotides with overhangs were designed to produce a guide RNA (gRNA) for the Cas9 nuclease that would target exon 7 of the SNAT2 gene. Colonies were analysed by sequencing using the U6 primer included in the GeneArt CRISPR Nuclease Vector with OFP Reporter kit. Plasmids that contained the correct CRISPR nuclease construct were then used to transfect HCC1806 cells with Lipofectamine 2000 (Invitrogen). Prior to transfection, medium was replaced with 2 ml of fresh DMEM/F-12 (supplemented with 10% heat-inactivated FBS and 2 mM glutamine). Plasmid DNA (4 µg) and 10 µL of Lipofectamine 2000 were incubated separately for 5 min at room temperature in 500 µl of Opti-MEM (Invitrogen) before being combined and incubated for a further 30 min at room temperature. The DNA-Lipofectamine complex was then added to the cells in a dropwise manner and allowed to be absorbed over 6 h at 37°C, after which the medium was renewed with fresh DMEM/F-12. Cells were checked for red fluorescence using an EVOS FL cell imaging system (Thermo Fisher Scientific) 48–72 h post transfection. Subsequently, cells were detached using 0.25% Trypsin EDTA. After harvesting and washing thrice with PBS (pH 7.4), cells were resuspended in PBS (pH 7.4) supplemented with 5 mM glucose and 1% dialysed and heat inactivated FBS and passed through a 100 μm cell strainer. The cell filtrate was then pelleted once more and resuspended in the same buffer. Cells were sorted using an ARIA II FACS machine and individually dispensed into the wells of a 96-well plate. Nullizygous clones were identified using a series of assays including the FLIPR membrane potential assay, western blotting and sequencing.
The FLIPR Membrane Potential Blue Explorer Kit (Molecular Devices) was used to characterise inhibitors and to optimise a high-throughput compound screen. Cells were seeded at approximately 60,000 cells/well on a 96-well plate and allowed to attach and grow overnight in a cell incubator. The next day, the cells were washed once with mHBSS and incubated in a starvation medium (composed of mHBSS with 1% dialysed heat-inactivated FBS, 23 mM NaHCO3, 10 U/ml penicillin and 10 μg/ml streptomycin) for 24 h. Cells were then washed once with mHBSS and incubated with 50 µl of the mHBSS-resuspended FMP assay dye and 50 µl of mHBSS (with or without inhibitors) and incubated at room temperature for 30 min. The plate was then placed in an EnSpire Multimode plate reader (PerkinElmer) and four sequential measurements of fluorescence were recorded as a baseline reference. Immediately after the baseline measurements were taken, 25 µl of 5 mM glutamine dissolved in mHBSS was injected into each well and the plate was shaken orbitally for 5 s before a series of consecutive fluorescence measurements were taken. The excitation wavelength was set to 530 nm and the emission was detected at 565 nm. The Δ fluorescent signal reported in the figures was taken 30 s after substrate addition. After the assay was complete, the liquid content of the plate was carefully removed, and the cell monolayer inspected to ensure it remained intact throughout the course of the assay.

SMILES | Leucine uptake, Mean (B0AT1 (SLC6A19)) [nmol / mg protein x 6 min] | FMP signal as substrate (SNAT1 and SNAT2)
Cc1ccc(S(=O)(=O)N(C)c2ccsc2C(=O)NCc2ccccc2C(F)(F)F)cc1 [Compound 57_E, 3-(N-methyl (4-methylphenyl)sulfonamido)-N-(2-trifluoromethylbenzyl)thiophene-2-carboxamide] | 55.2874 | 
C[N+](C)(C)CC(=O)O [Betaine, betaine] |  | strong FMP signal
